# Measured values: article PMC9478638 (Proceedings of the National Academy of Sciences of the …, 2022)
# Tests used:
# Dgt–Gp1.2 complex = biological target: T1, Dgt–Gp1.2 complex (Escherichia coli; Escherichia phage T7, UniProt P03780+P15723); experiment: PNP/xanthine oxidase coupled dGTPase assay, A297; type: biochemical
# T1 sequence (P15723 1-505): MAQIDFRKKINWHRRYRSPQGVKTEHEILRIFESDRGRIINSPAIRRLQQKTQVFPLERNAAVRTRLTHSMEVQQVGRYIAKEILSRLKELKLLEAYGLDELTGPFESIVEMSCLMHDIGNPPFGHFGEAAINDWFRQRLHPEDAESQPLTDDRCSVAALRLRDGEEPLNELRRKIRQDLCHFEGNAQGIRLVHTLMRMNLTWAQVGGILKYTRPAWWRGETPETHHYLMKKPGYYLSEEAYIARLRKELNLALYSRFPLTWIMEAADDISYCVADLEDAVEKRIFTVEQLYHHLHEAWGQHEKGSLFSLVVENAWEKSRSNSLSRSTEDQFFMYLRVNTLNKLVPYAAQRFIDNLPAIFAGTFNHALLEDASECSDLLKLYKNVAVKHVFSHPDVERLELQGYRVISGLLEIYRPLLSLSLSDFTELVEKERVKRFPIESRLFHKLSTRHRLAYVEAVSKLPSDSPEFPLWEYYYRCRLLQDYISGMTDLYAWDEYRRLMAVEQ
# T1 sequence (P03780 2-85): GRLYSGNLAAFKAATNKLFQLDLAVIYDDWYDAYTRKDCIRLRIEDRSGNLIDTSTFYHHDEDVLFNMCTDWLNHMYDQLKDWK
# E. coli Dgt = biological target: T2, E. coli Dgt (Escherichia coli, UniProt P15723); experiment: PNP/xanthine oxidase coupled dGTPase assay, A297; type: biochemical
# T2 sequence (P15723 1-505): T1 sequence (P15723 1-505)
smiles,measurement,setting,value
Nc1nc2c(ncn2[C@@H]2O[C@H](COP(=O)(O)OP(=O)(O)OP(=O)(O)O)[C@@H](O)[C@H]2O)c(=O)[nH]1 [GTP],IC50,Dgt–Gp1.2 complex,0.31 ± 0.05 µM
same,Ki,E. coli Dgt,120 ± 50 µM
